Data: US11882828B2, “Mosquito vector control compositions, methods and products utilizing same” (priority 2015, dated 2024)

Legend:
Assay in all cases: whole plant or invertebrate
[1] = tested on: Aedes aegypti (Yellow fever mosquito)
Description: […] Once the deposits were dry, five non-blood fed adult female Aedes aegypti (between two to five days old) were added to each well, and sustained with a 10% sucrose solution in a cotton wool plug. Assessment of the knockdown after 1 hour, and mortality after 48 hours was carried out.
(§1) In case of multiple tests, the mean value is reported.

[2] = tested on: Anopheles stephensi (Indian malaria mosquito)
Description: […] Once the deposits were dry, five non-blood fed adult female Anopheles stephensi (between two to five days old) were added to each well, and sustained with a 10% sucrose solution in a cotton wool plug. Assessment of the knockdown after 1 hour, and mortality after 48 hours was carried out.
as §1

Aedes aegypti = tested on: Aedes aegypti
Description: (§2) The individual wells of six (6) well tissue culture plates were treated with 250 μl of an ethanol solution containing a test compound at a defined concentration. Once the deposits were dry, ten non-blood fed adult female Aedes aegypti or Anopheles stephensi (each between two to five day old) were added to each well, and sustained with a 10% sucrose solution in a cotton wool plug.
(§3) Assessment of the mortality was carried out at 48 hours.
(§4) Each treatment was replicated twice, with the mean mortality recorded.

Anopheles stephensi = tested on: Anopheles stephensi
Description: as §2, §3, §4

[3] = Aedes aegypti, 1 h, read-out: Knockdown
[4] = Anopheles stephensi, 1 h, read-out: Knockdown

Row | Compound | pest or weed control at 20 ppm [1, 3] | mortality at 20 ppm ([1]; Aedes aegypti, 48 h) | pest or weed control at 20 ppm [2, 4] | mortality at 20 ppm ([2]; Anopheles stephensi, 48 h) | other results
1 | CC1(C)[C@H](C(=O)O[C@H](C#N)c2cccc(Oc3ccccc3)c2)[C@@H]1/C=C(\Cl)C(F)(F)F (racemic) [Lambda-cyhalothrin, reference compound] | – | – | – | – | pest or weed control at 2 ppm [1, 3]: 92%; mortality at 2 ppm ([1]; Aedes aegypti, 48 h): 100%; pest or weed control at 2 ppm [2, 4]: 83%; mortality at 2 ppm ([2]; Anopheles stephensi, 48 h): 100%; mortality at 0.2 ppm (Aedes aegypti; Aedes aegypti, 48 h): 99%; mortality at 0.2 ppm (Anopheles stephensi; Anopheles stephensi, 48 h): 84%
2 | CO/C=C(/C(=O)OC)c1ccccc1Oc1ncc(C(C)(C)C)s1 [AA] | 0% | 0% | – | – | –
3 | C=CCOC(=O)c1cccn1/C(=C\OC)C(=O)OC [AB, reference compound] | 60% | 100% | 100% | 100% | mortality at 5 ppm (Aedes aegypti; Aedes aegypti, 48 h): 75%; mortality at 5 ppm (Anopheles stephensi; Anopheles stephensi, 48 h): 80%
4 | CO/C=C(/C(=O)OC)c1ccccc1COc1cccc(C(F)(F)F)n1 [AC, Picoxystrobin, reference compound] | 0% | 40% | 100% | 100% | mortality at 5 ppm (Aedes aegypti; Aedes aegypti, 48 h): 4%; mortality at 5 ppm (Anopheles stephensi; Anopheles stephensi, 48 h): 75%
5 | CCc1nnc(Oc2ccccc2/C(=C\OC)C(=O)OC)s1 [AD] | 0% | 0% | – | – | –
6 | CCCCO/N=C(C)/C(C)=N/OCc1ccccc1/C(=C\OC)C(=O)OC [B] | 0% | 0% | – | – | –
7 | CO/C=C(/C(=O)OC)c1ccccc1COc1cc(C(F)(F)F)nc(OC(C)C)n1 [C, Fluacrypyrim] | 0% | 0% | – | – | –
8 | CO/C=C(/C(=O)OC)c1ccccc1CO/N=C(C)/C(C)=N/OC [Compound 1] | 50% | 90% | 40% | 100% | mortality at 5 ppm (Aedes aegypti; Aedes aegypti, 48 h): 74%; mortality at 5 ppm (Anopheles stephensi; Anopheles stephensi, 48 h): 100%
9 | CO/C=C(/C(=O)OC)c1ccccc1Oc1nnc(C(C)(C)C)o1 [Compound 2, methyl (E)-2-[2-[(5-tert-butyl-1,3,4-oxadiazol-2-yl)oxy]phenyl]-3-methoxy-prop-2-enoate] | 0% | 80% | 40% | 100% | mortality at 5 ppm (Aedes aegypti; Aedes aegypti, 48 h): 90%; mortality at 5 ppm (Anopheles stephensi; Anopheles stephensi, 48 h): 100%
10 | CO/C=C(/C(=O)OC)c1ccccc1Oc1cncc(OCC(F)(F)F)n1 [Compound 3] | 0% | 100% | 100% | 100% | –
11 | CO/C=C(/C(=O)OC)c1ccccc1Oc1cc(C(C)(C)C)ncn1 [Compound 9] | 0% | 80% | 100% | 100% | –
12 | CO/C=C(/C(=O)OC)c1ccccc1Oc1cc(C(F)(F)F)ncn1 [Compound 11, methyl (E)-3-methoxy-2-[2-[6-(trifluoromethyl)pyrimidin-4-yl]oxyphenyl]prop-2-enoate] | 100% | 100% | 80% | 100% | –
13 | CO/C=C(/C(=O)OC)c1ccccc1Oc1nccc(C(C)(C)C)n1 [Compound 14] | 0% | 40% | 0% | 100% | –
14 | CO/C=C(/C(=O)OC)c1ccccc1CO/N=C(\C)c1cc(C(F)(F)F)ccn1 [Compound 15] | 50% | 100% | 40% | 100% | mortality at 5 ppm (Aedes aegypti; Aedes aegypti, 48 h): 70%; mortality at 5 ppm (Anopheles stephensi; Anopheles stephensi, 48 h): 95%
15 | CCCc1cccc(OCc2ccccc2/C(=C\OC)C(=O)OC)n1 [Compound 16] | 0% | 80% | 20% | 100% | mortality at 5 ppm (Aedes aegypti; Aedes aegypti, 48 h): 20%; mortality at 5 ppm (Anopheles stephensi; Anopheles stephensi, 48 h): 95%
16 | CO/C=C(/C(=O)OC)c1ccccc1CO/N=C(\C)c1cc(C(F)(F)C(F)(F)F)ncn1 [Compound 18] | 0% | 40% | 100% | 100% | mortality at 5 ppm (Aedes aegypti; Aedes aegypti, 48 h): 70%; mortality at 5 ppm (Anopheles stephensi; Anopheles stephensi, 48 h): 100%
17 | CO/C=C(/C(=O)OC)c1ccccc1COc1ncccc1C(F)(F)F [Compound 19, Methyl (E)-3-methoxy-2-[2-[[3-(trifluoromethyl)-2-pyridyl]oxymethyl]phenyl]prop-2-enoate] | 20% | 100% | 40% | 100% | mortality at 5 ppm (Aedes aegypti; Aedes aegypti, 48 h): 75%; mortality at 5 ppm (Anopheles stephensi; Anopheles stephensi, 48 h): 100%
18 | CO/C=C(/C(=O)OC)c1ccccc1COc1nccnc1C(F)(F)F [Compound 20, Methyl (E)-3-methoxy-2-[2-[[3-(trifluoromethyl)pyrazin-2-yl]oxymethyl]phenyl]prop-2-enoate] | 100% | 100% | 100% | 100% | mortality at 5 ppm (Aedes aegypti; Aedes aegypti, 48 h): 70%; mortality at 5 ppm (Anopheles stephensi; Anopheles stephensi, 48 h): 100%
19 | CO/C=C(/C(=O)OC)c1ccccc1COc1ncc(C(F)(F)F)cc1C(F)(F)F [Compound 21] | 50% | 90% | 100% | 100% | mortality at 5 ppm (Aedes aegypti; Aedes aegypti, 48 h): 85%; mortality at 5 ppm (Anopheles stephensi; Anopheles stephensi, 48 h): 100%
20 | CO/C=C(/C(=O)OC)c1ccccc1COc1nc(F)c(F)cc1F [Compound 23] | 100% | 100% | 20% | 100% | mortality at 5 ppm (Aedes aegypti; Aedes aegypti, 48 h): 60%; mortality at 5 ppm (Anopheles stephensi; Anopheles stephensi, 48 h): 93%
21 | Clc1ccc(C(c2ccc(Cl)cc2)C(Cl)(Cl)Cl)cc1 [DDT, reference compound] | – | – | – | – | Knockdown ([1]; 10 ppm, after 1 hour): 35%; mortality ([1]; 10 ppm, after 48 hours): 90%; Knockdown ([2]; 10 ppm, after 1 hour): 70%; mortality ([2]; 10 ppm, after 48 hours): 80%; mortality (Aedes aegypti; 5 ppm, at 48 hours): 85%; mortality (Anopheles stephensi; 5 ppm, at 48 hours): 59%
22 | CO/C=C(/C(=O)OC)c1ccccc1Oc1ncc([N+](=O)[O-])s1 [D] | 0% | 0% | – | – | –

Row | Compound | pest or weed control at 20 ppm [1, 3] | mortality at 20 ppm ([1]; Aedes aegypti, 48 h) | pest or weed control at 20 ppm [2, 4] | mortality at 20 ppm ([2]; Anopheles stephensi, 48 h) | other results
23 | CO/C=C(/C(=O)OC)c1ccccc1CCc1cc(C(F)(F)F)ccn1 [E] | 0% | 0% | – | – | –
24 | CO/C=C(/C(=O)OC)c1ccccc1COc1ncccc1Cl [F, reference compound] | 0% | 60% | 60% | 100% | mortality at 5 ppm (Aedes aegypti; Aedes aegypti, 48 h): 30%; mortality at 5 ppm (Anopheles stephensi; Anopheles stephensi, 48 h): 20%
25 | CO/C=C(/C(=O)OC)c1ccccc1CO/N=C(\C)c1cc(C(F)(F)F)ncn1 [G] | 0% | 0% | – | – | –
26 | CO/C=C(/C(=O)OC)c1ccccc1CO/N=C(\C)c1cccc(C(F)(F)F)n1 [H] | 0% | 0% | – | – | –
27 | CO/C=C(/C(=O)OC)c1ccccc1Oc1cc(Cl)ccn1 [I] | 0% | 40% | – | – | –
28 | CO/C=C(/C(=O)OC)c1ccccc1Oc1cc(OCC(F)(F)F)ncn1 [J] | 0% | 0% | – | – | –
29 | CCCc1nnc(Oc2ccccc2/C(=C\OC)C(=O)OC)o1 [K] | 0% | 0% | – | – | –
30 | CCC(CC)/C(C)=N/OCc1ccccc1/C(=C\OC)C(=O)OC [L] | 0% | 0% | – | – | –
31 | CO/C=C(/C(=O)OC)c1ccccc1Oc1nc(CC(C)(C)C)ns1 [M] | 0% | 0% | – | – | –
32 | CO/C=C(/C(=O)OC)c1ccccc1Oc1nccc(OC(C)(C)C)n1 [N] | 0% | 0% | – | – | –
33 | CO/C=C(/C(=O)OC)c1ccccc1Oc1ncnc(C2CC2)n1 [O] | 0% | 0% | – | – | –
34 | CO/C=C(/C(=O)OC)c1ccccc1COc1cccc(C(C)(C)C)n1 [P] | 0% | 0% | – | – | –
35 | CN/C(C)=N/OCc1ccccc1/C(=C\OC)C(=O)OC [Q] | 0% | 0% | – | – | –
36 | CO/C=C(/C(=O)OC)c1ccccc1CO/N=C(C)/C=C/c1ccc(Cl)cc1 [R, Enoxastrobin] | 0% | 0% | – | – | –
37 | CO/C=C(/C(=O)OC)c1ccccc1COc1cc(-c2ccc(Cl)cc2)nn1C [S, Pyraoxystrobin] | 0% | 0% | – | – | –
38 | CCCCc1c(C)c2ccc(OCc3ccccc3/C(=C\OC)C(=O)OC)cc2oc1=O [T, Coumoxystrobin] | 0% | 0% | – | – | –
39 | CO/C=C(/C(=O)OC)c1ccccc1COc1cc(C(F)(F)F)nc(Nc2ccc(Cl)cc2Cl)n1 [U, Pyriminostrobin] | 0% | 0% | – | – | –
40 | CO/C=C(/C(=O)OC)c1ccccc1COc1nc2cc(C(F)(F)F)ccc2nc1C(F)(F)F [V] | 0% | 0% | – | – | –
41 | CO/C=C(/C(=O)OC)c1ccccc1COc1nc2ccc(C(F)(F)F)cc2nc1C(F)(F)F [W] | 0% | 0% | – | – | –
42 | CO/C=C(/C(=O)OC)c1ccccc1COc1nccnc1C#N [X] | 0% | 0% | – | – | –
43 | CO/C=C(/C(=O)OC)c1ccccc1Oc1nnc(C(C)(C)C)s1 [Y] | 0% | 0% | – | – | –
44 | CCC(C)c1noc(Oc2ccccc2/C(=C\OC)C(=O)OC)n1 (centres unmarked) [Z] | 0% | 0% | – | – | –
